Source: patent US20050100983A1, “Cell-free methods for identifying compounds that affect toll-like receptor 9 (TLR9) signaling” (Coley Pharmaceutical GmbH, priority 2003, published 2005)

Tested on: mTLR9mut (D535→A and Y537→A)
Test: NF-κB luciferase assay, HEK 293 cells transfected with mutated full length mTLR9
Format: cell-based, murine
Details: 1 μM CpG-DNA
Protocol: FIG. 3D is a bar graph depicting activation of mTLR9- and mTLR9mut-transfected cells from FIG. 3C. Cells were stimulated with 1 μM CpG-DNA or 10 ng/ml of the TLR-independent stimulus 12-O-tetradecanoylphorbol 13-acetate (TPA) and subsequent NF-κB induction was analyzed. Activation is expressed as fold induction compared to no stimulation.
Mutation. For mutation of wild-type mTLR9 amino acids D535 and Y537 to two alanines, the primers 5′-[…]-3′ (SEQ ID NO:5) and 5′-[…]-3′ (SEQ ID NO:6) were used to generate mTLR9-mut. A site-specific-mutagenesis kit from Stratagene (Amsterdam, Netherlands) was applied according to the manufacturer's protocol. All PCR fragments were sequenced and found error-free.
NF-κB luciferase assay. For monitoring transient NF-κB activation, 3×10^6 HEK 293 cells were electroporated at 200 volt and 950 μF with 20 ng of a NF-κB luciferase reporter plasmid (kindly provided by Patrick Baeuerle, Munich, Germany) and 1 μg mTLR2 (kindly provided by Tularik, Inc., South San Francisco, USA), mTLR9, or mTLR9-mut expression plasmid. Cells were seeded at 10^5 cells per well and after overnight culture stimulated with 1 μM phosphorothioated CpG-DNA 1668 (SEQ ID NO:1), 1 μM non-CpG-DNA 1668GC (SEQ ID NO:3), 1 μg/ml Pam3CysK4 or 1 μg/ml PHCK4 for further 8 hours. […]

5′-TCCATGACGTTCCTGATGCT-3′ (chemistry not given here) [CpG-DNA 1668, synthetic CpG oligodeoxynucleotide, TLR9 ligand]
response of cells with mutated full length mTLR9 to CpG-DNA (NF-κB induction): did not respond
